Measurements taken from patent EP4603105A1, “PHARMACEUTICAL COMPOSITION CONTAINING CYCLIC COMPOUND HAVING SELECTIVE KRAS INHIBITORY EFFECT AGAINST HRAS AND NRAS” (CHUGAI SEIYAKU KABUSHIKI KAISHA, priority 2022, dated 2024).
Blank lines part the entries; values can stand above or below the molecule they belong to.

Tests used:
[1] = biological target: GDP-bound KRAS wild-type protein (Homo sapiens, UniProt P01116); assay: Binding to KRAS by surface plasmon resonance (SPR), dissociation constant KD; conditions: Single Cycle Kinetics
Method in brief: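 Single-cycle kinetics on GDP-loaded biotin-Avi RAS captured to ~100–300 RU; 75 s ascending injections, 100 µL/min, 30°C. HBS pH 7.4 + 10 mM MgCl2/10 µM GDP/4% DMSO. 1:1 fit, KD.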

[2] = biological target: GDP-bound NRAS wild-type protein (Homo sapiens, UniProt P01111); assay: Binding to NRAS by surface plasmon resonance (SPR), KD and KD ratio to KRAS; conditions: ratio of KD for GDP-bound NRAS wild-type protein to KD for KRAS
Method in brief: (§1)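 Compound binding is evaluated by SPR single-cycle kinetics, with concentrations added intermittently from low to high for 75 s each. Target surfaces carry GDP-loaded biotinylated Avi-RAS at about 100–300 RU, regenerated after each cycle; temperature 30°C. A 1:1 binding model gives KD.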

HRAS wild-type protein = HRAS wild-type protein (Homo sapiens, UniProt P01112); assay: Binding to HRAS by surface plasmon resonance (SPR), KD and KD ratio to KRAS; conditions: ratio of KD for HRAS wild-type protein to KD for KRAS
Method in brief: as §1

[3] = system: human lung cancer strain NCI-H441; assay: NCI-H441 cell proliferation inhibitory activity (CellTiter-Glo, 4 days); type: cell-based; conditions: NCI-H441 cells, 4 days, read-out: NCl-H441 IC50
Method in brief: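 Proliferation was scored by […] measured after the reagent was added to cultures kept at 37°C in 5% carbon dioxide.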

Chain of HRAS wild-type protein (P01112 whole entry): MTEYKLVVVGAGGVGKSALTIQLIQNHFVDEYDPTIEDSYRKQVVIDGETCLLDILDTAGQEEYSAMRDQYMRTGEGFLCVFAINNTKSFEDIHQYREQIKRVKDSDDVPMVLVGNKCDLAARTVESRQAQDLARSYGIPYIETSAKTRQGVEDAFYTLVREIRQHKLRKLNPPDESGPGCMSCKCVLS
Chain of GDP-bound KRAS wild-type protein (P01116 1-188 isoform P01116-2): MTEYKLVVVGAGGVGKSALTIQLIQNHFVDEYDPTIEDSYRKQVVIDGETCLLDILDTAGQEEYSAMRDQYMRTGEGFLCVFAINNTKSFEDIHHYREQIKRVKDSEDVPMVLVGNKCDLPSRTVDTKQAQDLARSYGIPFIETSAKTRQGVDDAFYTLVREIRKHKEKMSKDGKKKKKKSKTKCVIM
Chain of GDP-bound NRAS wild-type protein (P01111 whole entry): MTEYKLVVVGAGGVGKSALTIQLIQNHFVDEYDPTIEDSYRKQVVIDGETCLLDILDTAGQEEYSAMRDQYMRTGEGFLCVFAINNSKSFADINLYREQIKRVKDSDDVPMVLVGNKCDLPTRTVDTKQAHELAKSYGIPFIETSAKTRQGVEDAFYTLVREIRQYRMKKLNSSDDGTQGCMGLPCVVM

SMILES: CCO[C@@H]1C[C@H]2C(=O)NC3(CCC3)C(=O)N(C)[C@@H](C3CCCC3)C(=O)N(C)[C@H](C(=O)N(C)C)CC(=O)N(C)[C@@H](CC(C)C)C(=O)N[C@@H]([C@@H](C)CC)C(=O)N(C)CC(=O)N(C)[C@H]3C/C(F)=C\CCN(C3=O)[C@@H](Cc3ccc(C)cc3)C(=O)N(C)CC(=O)N[C@@H](CCc3cc(F)c(C(F)(F)F)c(F)c3)C(=O)N2C1 [PP3515]
Kd [1]: 0.28 nM
NRAS /KRAS [2]: B (a compound having 3 or more and less than 10 is denoted as B)
HRAS /KRAS (HRAS wild-type protein): B (a compound having 3 or more and less than 10 is denoted as B)
IC50 [3]: 17 nM

SMILES: CCO[C@@H]1C[C@H]2C(=O)NC3(CCCC3)C(=O)N(C)[C@@H](C3CCC3)C(=O)N(C)[C@H](C(=O)N(C)C)CC(=O)N(C)[C@@H](CC(C)C)C(=O)N[C@@H]([C@@H](C)CC)C(=O)N(C)CC(=O)N(C)[C@H]3C/C(F)=C\CCN(C3=O)[C@@H](Cc3ccc(C(F)(F)F)cc3)C(=O)N(C)CC(=O)N[C@@H](CCc3cc(F)c(C(F)(F)F)c(F)c3)C(=O)N2C1 [PP3516]
Kd [1]: 1.4 nM
NRAS /KRAS [2]: B (a compound having 3 or more and less than 10 is denoted as B)
HRAS /KRAS (HRAS wild-type protein): B (a compound having 3 or more and less than 10 is denoted as B)
IC50 [3]: 55.4 nM

SMILES: CCO[C@@H]1C[C@H]2C(=O)NC3(CCCC3)C(=O)N(C)[C@@H](C3CCC3)C(=O)N(C)[C@H](C(=O)N(C)C)CC(=O)N(C)[C@@H](CC(C)C)C(=O)N[C@@H]([C@@H](C)CC)C(=O)N(C)CC(=O)N(C)[C@H]3C/C(F)=C\CCN(C3=O)[C@@H](Cc3ccc(C)cc3)C(=O)N(C)CC(=O)N[C@@H](CCc3cc(F)c(C(F)(F)F)c(F)c3)C(=O)N2C1 [PP3517]
Kd [1]: 1.8 nM
NRAS /KRAS [2]: B (a compound having 3 or more and less than 10 is denoted as B)
HRAS /KRAS (HRAS wild-type protein): B (a compound having 3 or more and less than 10 is denoted as B)
IC50 [3]: 55.6 nM

SMILES: CCC[C@H]1C(=O)N[C@@H]([C@@H](C)CC)C(=O)N2CCC[C@H]2C(=O)N(C)[C@H]2C/C(F)=C\CCN(C2=O)[C@@H](Cc2ccc(C)cc2)C(=O)N(C)CC(=O)N[C@@H](CCc2cc(F)c(C(F)(F)F)c(F)c2)C(=O)N2C[C@H](OCC)C[C@H]2C(=O)NC2(CCC2)C(=O)N(C)[C@@H](C2CCCC2)C(=O)N(C)[C@H](C(=O)N(C)C)CC(=O)N1C [PP3520]
Kd [1]: 1.2 nM
NRAS /KRAS [2]: B (a compound having 3 or more and less than 10 is denoted as B)
HRAS /KRAS (HRAS wild-type protein): B (a compound having 3 or more and less than 10 is denoted as B)
IC50 [3]: 91.9 nM

SMILES: CC[C@H](C)[C@@H]1NC(=O)[C@H](CC(C)C)N(C)C(=O)C[C@@H](C(=O)N(C)C)N(C)C(=O)[C@H](C2CCCC2)N(C)C(=O)C2(CCCC2)NC(=O)[C@@H]2CCN2C(=O)[C@H](CCc2cc(F)c(C(F)(F)F)c(F)c2)NC(=O)CN(C)C(=O)[C@H](Cc2ccc(C(F)(F)F)cc2)N2CC/C=C(/F)C[C@@H](C2=O)N(C)C(=O)CN(C)C1=O [PP3521]
Kd [1]: 2.3 nM
NRAS /KRAS [2]: B (a compound having 3 or more and less than 10 is denoted as B)
HRAS /KRAS (HRAS wild-type protein): B (a compound having 3 or more and less than 10 is denoted as B)
IC50 [3]: 36.6 nM

SMILES: CCO[C@@H]1C[C@H]2C(=O)NC(C)(C)C(=O)N(C)[C@@H](C3CCCC3)C(=O)N(C)[C@H](C(=O)N(C)C)CC(=O)N(C)[C@@H](CC(C)C)C(=O)N[C@@H]([C@@H](C)CC)C(=O)N(C)CC(=O)N(C)[C@H]3C/C(F)=C\CCN(C3=O)[C@@H](Cc3ccc(C)cc3)C(=O)N(C)CC(=O)N[C@@H](CCc3cc(F)c(C(F)(F)F)c(F)c3)C(=O)N2C1 [PP3523]
Kd [1]: 0.59 nM
NRAS /KRAS [2]: B (a compound having 3 or more and less than 10 is denoted as B)
HRAS /KRAS (HRAS wild-type protein): B (a compound having 3 or more and less than 10 is denoted as B)
IC50 [3]: 23.9 nM

SMILES: CCC[C@H]1C(=O)N[C@@H]([C@@H](C)CC)C(=O)N2CCC[C@H]2C(=O)N(C)[C@H]2C/C(F)=C\CCN(C2=O)[C@@H](Cc2ccc(C)cc2)C(=O)N(C)CC(=O)N[C@@H](CCc2ccc(C(F)(F)F)c(OC)c2)C(=O)N2C[C@H](OCC)C[C@H]2C(=O)N(C)C2(CCC2)C(=O)N(C)[C@@H](C2CCCC2)C(=O)N(C)[C@H](C(=O)N(C)C)CC(=O)N1C [PP3524]
Kd [1]: 0.24 nM
NRAS /KRAS [2]: B (a compound having 3 or more and less than 10 is denoted as B)
HRAS /KRAS (HRAS wild-type protein): B (a compound having 3 or more and less than 10 is denoted as B)
IC50 [3]: 6.9 nM

SMILES: CCC[C@H]1C(=O)N[C@@H]([C@@H](C)CC)C(=O)N2CCC[C@H]2C(=O)N(C)[C@H]2C/C(F)=C\CCN(C2=O)[C@@H](Cc2ccc(C)cc2)C(=O)N(C)CC(=O)N[C@@H](CCc2cc(F)c(C(F)(F)F)c(F)c2)C(=O)N2C[C@H](OCC)C[C@H]2C(=O)N(C)C2(CCC2)C(=O)N(C)[C@@H](C2CCCC2)C(=O)N(C)[C@H](C(=O)N(C)C)CC(=O)N1C [PP3526]
Kd [1]: 0.29 nM
NRAS /KRAS [2]: B (a compound having 3 or more and less than 10 is denoted as B)
HRAS /KRAS (HRAS wild-type protein): B (a compound having 3 or more and less than 10 is denoted as B)
IC50 [3]: 10.9 nM

SMILES: CCC[C@H]1C(=O)N[C@@H]([C@@H](C)CC)C(=O)N(C2CC2)CC(=O)N(C)[C@H]2C/C(F)=C\CCN(C2=O)[C@@H](Cc2ccc(C)cc2)C(=O)N(C)CC(=O)N[C@@H](CCc2cc(F)c(C(F)(F)F)c(F)c2)C(=O)N2C[C@H](OCC)C[C@H]2C(=O)N(C)C2(CCC2)C(=O)N(C)[C@@H](C2CCCC2)C(=O)N(C)[C@H](C(=O)N(C)C)CC(=O)N1C [PP3527]
Kd [1]: 0.38 nM
NRAS /KRAS [2]: B (a compound having 3 or more and less than 10 is denoted as B)
HRAS /KRAS (HRAS wild-type protein): B (a compound having 3 or more and less than 10 is denoted as B)
IC50 [3]: 7.2 nM

SMILES: CCC[C@H]1C(=O)N[C@@H]([C@@H](C)CC)C(=O)N2CC[C@H]2C(=O)N(C)[C@H]2C/C(F)=C\CCN(C2=O)[C@@H](Cc2ccc(C(F)(F)F)cc2)C(=O)N(C)CC(=O)N[C@@H](CCc2ccc(C(F)(F)F)c(OC)c2)C(=O)N2C[C@H](OCC)C[C@H]2C(=O)N(C)C2(CCC2)C(=O)N(C)[C@@H](C2CCCC2)C(=O)N(C)[C@H](C(=O)N(C)C)CC(=O)N1C [PP3529]
Kd [1]: 0.11 nM
NRAS /KRAS [2]: B (a compound having 3 or more and less than 10 is denoted as B)
HRAS /KRAS (HRAS wild-type protein): B (a compound having 3 or more and less than 10 is denoted as B)
IC50 [3]: 7.1 nM

The remaining molecules from weak to strong by Kd [1], led by results:

Kd [1]: 2.6 nM
IC50 [3]: 48.7 nM
SMILES: CC[C@H](C)[C@@H]1NC(=O)[C@H](CC(C)C)N(C)C(=O)C[C@@H](C(=O)N(C)C)N(C)C(=O)[C@H](C2CCCC2)N(C)C(=O)C2(CCCC2)NC(=O)[C@@H]2CCN2C(=O)[C@H](CCc2cc(F)c(C(F)(F)F)c(F)c2)NC(=O)CN(C)C(=O)[C@H](Cc2ccc(C)cc2)N2CC/C=C(/F)C[C@@H](C2=O)N(C)C(=O)CN(C)C1=O [PP3522]
NRAS /KRAS [2]: B (a compound having 3 or more and less than 10 is denoted as B)
HRAS /KRAS (HRAS wild-type protein): B (a compound having 3 or more and less than 10 is denoted as B)

Kd [1]: 0.87 nM
IC50 [3]: 22.3 nM
SMILES: CCC[C@H]1C(=O)N[C@@H]([C@@H](C)CC)C(=O)N(C2CC2)CC(=O)N(C)[C@H]2C/C(F)=C\CCN(C2=O)[C@@H](Cc2ccc(C)cc2)C(=O)N(C)CC(=O)N[C@@H](CCc2cc(F)c(C(F)(F)F)c(F)c2)C(=O)N2C[C@H](OCC)C[C@H]2C(=O)NC2(CCC2)C(=O)N(C)[C@@H](C2CCCC2)C(=O)N(C)[C@H](C(=O)N(C)C)CC(=O)N1C [PP3519]
NRAS /KRAS [2]: B (a compound having 3 or more and less than 10 is denoted as B)
HRAS /KRAS (HRAS wild-type protein): B (a compound having 3 or more and less than 10 is denoted as B)

Kd [1]: 0.64 nM
IC50 [3]: 19.2 nM
SMILES: CCC[C@H]1C(=O)N[C@@H]([C@@H](C)CC)C(=O)N(C2CC2)CC(=O)N(C)[C@H]2C/C(F)=C\CCN(C2=O)[C@@H](Cc2ccc(C(F)(F)F)cc2)C(=O)N(C)CC(=O)N[C@@H](CCc2cc(F)c(C(F)(F)F)c(F)c2)C(=O)N2C[C@H](OCC)C[C@H]2C(=O)NC2(CCC2)C(=O)N(C)[C@@H](C2CCCC2)C(=O)N(C)[C@H](C(=O)N(C)C)CC(=O)N1C [PP3518]
NRAS /KRAS [2]: B (a compound having 3 or more and less than 10 is denoted as B)
HRAS /KRAS (HRAS wild-type protein): B (a compound having 3 or more and less than 10 is denoted as B)

Kd [1]: 0.22 nM
IC50 [3]: 3.4 nM
SMILES: CCC[C@H]1C(=O)N[C@@H]([C@@H](C)CC)C(=O)N(C2CC2)CC(=O)N(C)[C@H]2C/C(F)=C\CCN(C2=O)[C@@H](Cc2ccc(C)cc2)C(=O)N(C)CC(=O)N[C@@H](CCc2ccc(C(F)(F)F)c(OC)c2)C(=O)N2C[C@H](OCC)C[C@H]2C(=O)N(C)C2(CCC2)C(=O)N(C)[C@@H](C2CCCC2)C(=O)N(C)[C@H](C(=O)N(C)C)CC(=O)N1C [PP3525]
NRAS /KRAS [2]: B (a compound having 3 or more and less than 10 is denoted as B)
HRAS /KRAS (HRAS wild-type protein): B (a compound having 3 or more and less than 10 is denoted as B)

Kd [1]: 0.062 nM
IC50 [3]: 3.7 nM
SMILES: CCC[C@H]1C(=O)N[C@@H]([C@@H](C)CC)C(=O)N(C)CC(=O)N(C)[C@H]2C/C(F)=C\CCN(C2=O)[C@@H](Cc2ccc(C)cc2)C(=O)N(C)CC(=O)N[C@@H](CCc2cc(F)c(C(F)(F)F)c(F)c2)C(=O)N2C[C@H](OCC)C[C@H]2C(=O)N(C)C2(CCC2)C(=O)N(C)[C@@H](C2CCCC2)C(=O)N(C)[C@H](C(=O)N(C)C)CC(=O)N1C [PP3528]
NRAS /KRAS [2]: B (a compound having 3 or more and less than 10 is denoted as B)
HRAS /KRAS (HRAS wild-type protein): B (a compound having 3 or more and less than 10 is denoted as B)
